“Also recorded” adds a separate entry of the source.
How the values were obtained:
[1] = target: human endothelial NOS (heNOS) (Homo sapiens, UniProt P29474); test: IC50 determination, heNOS; type: biochemical; details: for isoform selectivity heNOS/bNOS (in parentheses): ratio of IC50 heNOS to IC50 bNOS WT
Protocol: (§1) Enzyme activity for bsNOS and bsNOS I218V was measured using the bBidomain constructs, as described previously,^4,14 with some minor alterations. Reactions with bsNOS and bsNOS I218V were run for 8 min, whereas those with hiNOS and heNOS were run for 4 min, as this allowed for adequate signal before complete substrate depletion. hiNOS and heNOS reactions also had calmodulin added at 10× the protein concentration. Inhibitors were tested from 5 μM to 800 μM. IC50 values were calculated as previously described.^9

bNOS WT (bsNOS) [2] = target: T1, bNOS WT (bsNOS) (Bacillus subtilis, UniProt O34453); test: Imidazole displacement assay (spectral binding, Ks), bNOS WT; parameters: made in house; host or cells: E. coli BL21 (DE3)
Protocol: (§2) The KS value for each ligand was then calculated from KS,app as previously described,^4,14 using the KD of imidazole to bsNOS, bsNOS I218V, hiNOS, and heNOS and normalized to L-Arg.
Target sequence in this assay (O34453 whole entry): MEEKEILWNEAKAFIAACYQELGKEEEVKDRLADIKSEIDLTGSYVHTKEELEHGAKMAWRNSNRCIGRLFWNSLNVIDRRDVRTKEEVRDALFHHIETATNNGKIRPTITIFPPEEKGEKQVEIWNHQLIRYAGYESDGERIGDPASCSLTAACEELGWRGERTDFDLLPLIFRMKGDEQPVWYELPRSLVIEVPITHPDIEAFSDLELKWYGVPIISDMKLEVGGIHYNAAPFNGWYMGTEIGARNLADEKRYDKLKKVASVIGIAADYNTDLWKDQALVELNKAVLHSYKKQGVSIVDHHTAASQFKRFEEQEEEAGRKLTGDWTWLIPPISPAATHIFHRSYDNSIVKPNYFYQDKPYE

bNOS WT (bsNOS) [3] = target: T1, bNOS WT (bsNOS); test: IC50 determination with bBidomain construct, bNOS WT; type: biochemical; parameters: YKuN (fusion partner); made in house; host or cells: E. coli BL21 (DE3)
Protocol: as §1
Target sequence in this assay (O34453 other isoform, or with tags, fused parts or gaps): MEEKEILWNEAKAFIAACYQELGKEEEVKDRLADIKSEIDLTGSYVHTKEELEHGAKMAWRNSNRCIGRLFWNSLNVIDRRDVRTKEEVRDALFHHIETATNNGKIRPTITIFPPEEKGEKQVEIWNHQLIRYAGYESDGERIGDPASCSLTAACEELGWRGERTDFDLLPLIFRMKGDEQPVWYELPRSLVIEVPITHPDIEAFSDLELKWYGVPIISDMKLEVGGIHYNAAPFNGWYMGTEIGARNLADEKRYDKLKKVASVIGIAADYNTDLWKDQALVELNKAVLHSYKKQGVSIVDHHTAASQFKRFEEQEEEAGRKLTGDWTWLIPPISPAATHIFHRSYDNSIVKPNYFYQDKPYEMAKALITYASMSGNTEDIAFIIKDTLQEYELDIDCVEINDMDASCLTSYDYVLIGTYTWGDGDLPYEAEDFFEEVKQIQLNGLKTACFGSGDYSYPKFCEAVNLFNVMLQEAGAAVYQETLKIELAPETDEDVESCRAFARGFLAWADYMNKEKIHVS

[4] = target: human inducible NOS (hiNOS) (Homo sapiens, UniProt P35228); test: IC50 determination, hiNOS; type: biochemical; details: for isoform selectivity hiNOS/bNOS (in parentheses): ratio of IC50 hiNOS to IC50 bNOS WT
Protocol: as §1

bNOS (I218V) [5] = target: T2, bNOS (I218V) (Bacillus subtilis, UniProt O34453, I218V); test: IC50 determination with bBidomain construct, bNOS I218V; type: biochemical; parameters: YKuN (fusion partner); made in house; host or cells: E. coli BL21 (DE3)
Protocol: as §1
Target sequence in this assay (O34453 other isoform, or with tags, fused parts or gaps I218V): as the sequence (O34453 other isoform, or with tags, fused parts or gaps) above, with I218V counted along it

bNOS (I218V) [6] = target: T2, bNOS (I218V); test: Imidazole displacement assay (spectral binding, Ks), bNOS I218V mutant; parameters: made in house; host or cells: E. coli BL21 (DE3); details: for decrease in inhibitor specificity between wild type (WT) and the I218V mutant (increase in KS): KS I218V versus KS WT
Protocol: as §2
Target sequence in this assay (O34453 whole entry I218V, the tested form may be a part): as the sequence (O34453 whole entry) above, with I218V counted along it

[7] = tested on: MRSA in infected macrophage cells; test: Macrophage MRSA killing assay; type: cell-based; details: for MRSA killing activity in infected macrophage cells: FIG. 5; for MRSA killing activity compared with QJ13: FIG. 5B
Protocol: Bone marrow was isolated, red blood cells lysed with ACK buffer (Gibco), and plated on non-tissue culture treated dishes (Fisher) in DMEM media (Hyclone) supplemented with 2 mM L-glutamine (Corning), 100 U/mL pen-strep (Hyclone), 10% fetal bovine serum (OmegaScientific), and 10% cell conditioned media from CMG14-12 cells as a source of CSF. Macrophages were isolated after 6 days of differentiation and stored frozen in liquid nitrogen. One day prior to assay, macrophages were thawed and plated in flat-bottomed 96-well culture plates (VWR) at 50-70,000 cells per well in antibiotic-free DMEM media supplemented with 10% fetal bovine serum and L-glutamine.
Bacteria and inhibitors or vehicle control were added to each well. The plate was spun down for 5 min, 1500 rpm, 25° C. to bring bacteria in contact with the macrophages. The plate was incubated for 1 h at 37° C. with 5% CO2. The plate was spun down for 5 min, 1500 rpm, 25° C. The supernatant was pipetted off and discarded. Cells were lysed with 2% Triton-X 100 for 15 min. MTT in LB (100 μL of 1 mg/mL) was added to each well and plates were incubated for 2 h at 37° C. MTT was solubilized in DMSO, and plates were read at 540 nm. Killing was normalized to untreated bacteria. Empty wells with known bacteria quantities were used as a positive control.

human eNOS (heNOS) = target: T3, human eNOS (heNOS) (Homo sapiens, UniProt P29474); test: Hemoglobin NO capture assay, heNOS; type: biochemical; details: for Ki: from IC50 by Cheng-Prusoff, 10 μM L-Arg; for eNOS/nNOS selectivity: ratio of Ki heNOS to Ki hnNOS
T3 construct: made in house; host or cells: Escherichia coli
Protocol: (§3) The NOS inhibitory activity of the compounds was measured by the hemoglobin (Hb) NO capture assay following a protocol described previously.^1-2 The production of NO was monitored by a rapid oxidation of oxyhemoglobin (oxyHb) to methemoglobin (metHb) by NO.^1 Purified recombinant NOSs, human nNOS (hnNOS), and human eNOS (heNOS),^3 are used in all activity assays. They were expressed in Escherichia coli and purified as previously reported. In brief, the assay was performed in 100 mM HEPES (4-(2-hydroxyethyl)-1-piperazine-ethanesulfonic acid) buffer with 10% glycerol (pH 7.4-7.5) at 37° C. in the presence of 10 μM L-Arg, 10 μM H4B, 100 μM NADPH, 0.83 mM CaCl2), 320 units/mL calmodulin, and 3 μM human oxyhemoglobin. A concentration of L-Arg of 10 μM was used as it is sufficient not to cause NOS uncoupling and is close to the Km values of all three NOS isoforms where competitive inhibitors can be detected effectively. The assay was performed in 96-well plates using a Biotek Gen5 microplate reader. The NOS enzymes and hemoglobin were dispensed automatically by the plate reader. NO production was kinetically monitored at 401 nm for 6 min. The inhibition constants (Ki) for all NOSs were calculated from the IC50 values of the dose-response curves using the Cheng-Prusoff equation,^4
(§4) [formula] where Km is the Michaelis constant. […] The calculated standard deviations from dose-response curves of the assays were less than 10% with all NOSs.

hiNOS = hiNOS (Homo sapiens, UniProt P35228); test: Griess assay IC50, hiNOS; type: biochemical; details: IC50 value from Griess assay
human nNOS (hnNOS) = target: T4, human nNOS (hnNOS) (Homo sapiens, UniProt P29475); test: Hemoglobin NO capture assay, hnNOS; type: biochemical; details: from IC50 by Cheng-Prusoff, 10 μM L-Arg
T4 construct: made in house; host or cells: Escherichia coli
Protocol: as §3, §4

Compound	IC50 [1] [µM]	Kd (bNOS WT (bsNOS) [2]) [µM]	IC50 (bNOS WT (bsNOS) [3]) [µM]	IC50 [4] [µM]	isoform selectivity hiNOS/bNOS (in parentheses) [4]	IC50 (bNOS (I218V) [5]) [µM]	Kd (bNOS (I218V) [6]) [µM]	isoform selectivity heNOS/bNOS (in parentheses) [1]	MRSA killing activity in infected macrophage cells [7]	MRSA killing activity compared with QJ13 [7]	decrease in inhibitor specificity between wild type (WT) and the I218V mutant (increase in KS) (bNOS (I218V) [6]) [fold]	MRSA killing ([7]; at ~50 μM concentration)	Ki (human eNOS (heNOS)) [µM]	eNOS/nNOS selectivity (human eNOS (heNOS))	IC50 (hiNOS) [µM]	Ki (human nNOS (hnNOS)) [µM]
Nc1cccc(CCc2cccc(OCc3ccc4ccc(N)nc4c3)c2)n1 [Compound 3, 7-((3-(2-(6-aminopyridin-2-yl)ethyl)phenoxy)methyl)quinolin-2-amine]	> 500	29.9	23.1	435	19	31.2	23.5									
Nc1ccc2ccc(COc3cccc(CNCc4ccccn4)c3)cc2n1 [Compound 4, 7-((3-(((pyridin-2-ylmethyl)amino)methyl)phenoxy)methyl)quinolin-2-amine]	475	32	40	143	4	86	58.9	12								
Nc1cccc(CNCc2cccc(OCc3ccc4ccc(N)nc4c3)c2)n1 [Compound 5, 7-((3-((((6-aminopyridin-2-yl)methyl)amino)methyl)phenoxy)methyl)quinolin-2-amine]	307	2.3	28	318	11	114	40	11	exhibited killing activity; also recorded: showed efficacy only at higher concentrations	superior killing activity	17					
Nc1ccc2ccc(COc3cccc(CNCCc4ccccn4)c3)cc2n1 [Compound 6, 7-((3-(((2-(pyridin-2-yl)ethyl)amino)methyl)phenoxy)methyl)quinolin-2-amine]		22.6	21.6	396	18	63.8	31.9									
Nc1cccc(CCCCNCc2cccc(OCc3ccc4ccc(N)nc4c3)c2)n1 [Compound 8, 7-((3-(((4-(6-aminopyridin-2-yl)butyl)amino)methyl)phenoxy)methyl)quinolin-2-amine]	126	6.3	6.1	24	4	9.2	6.3	21								
Nc1cccc(CNCCOc2cccc(OCc3ccc4ccc(N)nc4c3)c2)n1 [Compound 9, 7-((3-(2-(((6-aminopyridin-2-yl)methyl)amino)ethoxy)phenoxy)methyl)quinolin-2-amine]	493	2.25	26.5	350	13	228	24.6	19	exhibited killing activity	superior MRSA killing activity	11	about 50%				
COC(=O)[C@@H](N)CCCNC(=N)N[N+](=O)[O-] [L-NAME, reference compound]									no effect							
Nc1ccc2ccc(COc3cccc(CNCc4ccccn4)c3)cc2n1 [PW-I-101]													19.8	900	143	0.022
Nc1cccc(CCCCNCc2cccc(OCc3ccc4ccc(N)nc4c3)c2)n1 [PW-I-103]													1.96	51	24	0.038
Nc1cccc(CNCCOc2cccc(OCc3cccc(N)n3)c2)n1 [PW-III-25]													340	102		3.3

Reference: patent publication US12213973B2, “Bacterial nitric oxide synthase inhibitors” (Northwestern University, priority 2021, dated 2025)
